Read-outs that look alike come from different tables or passages of the source.
Tests used:
Nae I [1] = target: T1, Nae I (Lentzea aerocolonigenes, UniProt P50187); assay: Activation of Nae I cleavage of M13mp18 RFI DNA; type: biochemical, Nocardia aerocolonigenes; set-up: key to Activation of Nae I cleavage of M13mp18 RF1 DNA: ++++: full activation; ++: about 50% activation; -: no activation
T1 sequence (P50187 1-317): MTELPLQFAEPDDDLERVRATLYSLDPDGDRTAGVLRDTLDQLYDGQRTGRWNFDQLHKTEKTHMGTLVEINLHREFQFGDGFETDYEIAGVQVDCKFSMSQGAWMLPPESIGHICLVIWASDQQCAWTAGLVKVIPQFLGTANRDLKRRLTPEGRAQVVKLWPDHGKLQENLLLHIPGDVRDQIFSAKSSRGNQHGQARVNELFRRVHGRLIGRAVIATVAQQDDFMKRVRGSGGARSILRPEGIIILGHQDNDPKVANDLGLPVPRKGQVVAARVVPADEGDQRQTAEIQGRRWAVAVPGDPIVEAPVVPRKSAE

Nae I [2] = target: T1, Nae I; assay: biochemical; conditions: 1 h, read-out: Increase in Nae I cleavage of SV40 slow site
Nae I [3] = target: T1, Nae I; conditions: 2 mM spermidine, SV40 DNA 2.9 nM, 1.1 units Nae I, 1 hour 37° C.

With `NCCCCNCCCN` [spermidine] the “Spermidine concentration needed to mimic the effect of 1 mM at low salt” value (Nae I [1]; 1 mM Mg2+ and 50 mM Na+) was 6 mM, the “Spermidine concentration at which the switch occurs (inhibition in presence of activating DNA)” value (Nae I [1]; 50 mM NaCl and 10 mM MgCl2) was 8 mM and the “Spermidine concentration at which the switch occurs (inhibition in presence of activating DNA)” value (Nae I [1]; low salt concentration) was 1 mM. For the same molecule, the “Effect on cleavage of resistant Nae I sites such as in M13mp18 DNA” value (Nae I [1]; spermidine at 1 mM, low salt) was “greatly activated”, the “Spermidine concentration that switches on Nae I cleavage of resistant sites” value (Nae I [1]; spermidine by itself, low salt conditions) was “about 1 mM” and the fold induction at 2000 µM (Nae I [2]) was 40. For the same molecule, the “Nae I cleavage of SV40 slow site” value (Nae I [3]) was 17%.
In the case of “CTGGTGGTGGGCGCCGGC (chemistry not given here) [Oligonucleotide duplex 5]”, the “Activation of Nae I cleavage of M13mp18 RF1 DNA” value (shortened to “Activation … of M13mp18 RF1 DNA”) (Nae I [1]) is reported as “-”.
In the case of “GCCGGC (chemistry not given here) [Oligonucleotide duplex 7]”, the “Activation … of M13mp18 RF1 DNA” value (Nae I [1]; compared to cleavage caused by an equal concentration of pBR322 Nae I sites) is reported as “-”.
For “GCCGGCGGTGTGGGCAGCTGGTG (chemistry not given here) [Oligonucleotide duplex 6]”, the “Activation … of M13mp18 RF1 DNA” value (Nae I [1]) was “-”.
“GCGCCGGCGG (chemistry not given here) [Oligonucleotide duplex 4]” was tested, and the “Activation … of M13mp18 RF1 DNA” value (Nae I [1]) was “-”.
“GGGCGCCGGCGGTG (chemistry not given here) [Oligonucleotide duplex 3]” was tested, and the “Activation … of M13mp18 RF1 DNA” value (Nae I [1]) was “++ (key: ++++: full activation; ++: about 50% activation; -: no activation)”.
“GGGTGCCGGCAGGG (chemistry not given here) [SEQ ID NO: 8]” was tested, and the “Activation as activating sequence for Nae I” value (Nae I [1]; procedures of Example 1) was 100%.
“TGGTGGGCGCCGGCGGTGTGGGCA (TTGGTGGGCGCCGGCGGTGTGGGCA; chemistry not given here) [Oligonucleotide duplex 2]” was tested, and the “Activation … of M13mp18 RF1 DNA” value (Nae I [1]) was “++++”.

From patent US5418150A, “Method of cleaving DNA” (priority 1993, dated 1995)
